Eleven compounds from PubChem BioAssay AID1259407 (Chemical Carcinogenesis Research Information System (CCRIS), 2018) can be followed below.

The test system of this data set is CCRIS mutagenicity, Ames/micronucleus/aberration tests. Description: CCRIS mutagenicity studies.
Setting [1] is: Test System: AMES SALMONELLA TYPHIMURIUM, Strain/Indicator: TA98, Metabolic Activation: HAMSTER, LIVER, S-9, AROCLOR 1254 (10%), Method: PREINCUBATION
The mark [2] stands for this setting: Test System: AMES SALMONELLA TYPHIMURIUM, Strain/Indicator: TA98, Metabolic Activation: NONE, Method: PREINCUBATION
Where [3] appears, read: Test System: AMES SALMONELLA TYPHIMURIUM, Strain/Indicator: TA98, Metabolic Activation: RAT, LIVER, S-9, AROCLOR 1254 (10%), Method: PREINCUBATION
The mark [4] stands for this setting: Test System: AMES SALMONELLA TYPHIMURIUM, Strain/Indicator: TA100, Metabolic Activation: HAMSTER, LIVER, S-9, AROCLOR 1254 (10%), Method: PREINCUBATION
Setting [5] is: Test System: AMES SALMONELLA TYPHIMURIUM, Strain/Indicator: TA100, Metabolic Activation: NONE, Method: PREINCUBATION
[6] abbreviates: Test System: AMES SALMONELLA TYPHIMURIUM, Strain/Indicator: TA100, Metabolic Activation: RAT, LIVER, S-9, AROCLOR 1254 (10%), Method: PREINCUBATION
The mark [7] stands for this setting: Test System: AMES SALMONELLA TYPHIMURIUM, Strain/Indicator: TA1535, Metabolic Activation: NONE, Method: PREINCUBATION
[8] abbreviates: Test System: AMES SALMONELLA TYPHIMURIUM, Strain/Indicator: TA1535, Metabolic Activation: RAT, LIVER, S-9, AROCLOR 1254 (10%), Method: PREINCUBATION
The mark [9] stands for this setting: Test System: AMES SALMONELLA TYPHIMURIUM, Strain/Indicator: TA98, Metabolic Activation: NONE, Method: STANDARD PLATE.
Setting [10] is: Test System: AMES SALMONELLA TYPHIMURIUM, Strain/Indicator: TA100, Metabolic Activation: NONE, Method: STANDARD PLATE.
Where [11] appears, read: Test System: AMES SALMONELLA TYPHIMURIUM, Strain/Indicator: TA97A, Metabolic Activation: NONE, Method: STANDARD PLATE.
The mark [12] stands for this setting: Test System: AMES SALMONELLA TYPHIMURIUM, Strain/Indicator: TA97A, Metabolic Activation: RAT, LIVER, S-9, AROCLOR 1254, Method: STANDARD PLATE.
The mark [13] stands for this setting: Test System: AMES SALMONELLA TYPHIMURIUM, Strain/Indicator: TA100, Metabolic Activation: RAT, LIVER, S-9, AROCLOR 1254, Method: STANDARD PLATE.
The mark [14] stands for this setting: Test System: AMES SALMONELLA TYPHIMURIUM, Strain/Indicator: TA102, Metabolic Activation: NONE, Method: STANDARD PLATE.
Setting [15] is: Test System: AMES SALMONELLA TYPHIMURIUM, Strain/Indicator: TA102, Metabolic Activation: RAT, LIVER, S-9, AROCLOR 1254, Method: STANDARD PLATE.
The mark [16] stands for this setting: Test System: AMES SALMONELLA TYPHIMURIUM, Strain/Indicator: TA98, Metabolic Activation: RAT, LIVER, S-9, AROCLOR 1254, Method: PREINCUBATION
[17] abbreviates: Test System: AMES SALMONELLA TYPHIMURIUM, Strain/Indicator: TA98, Metabolic Activation: RAT, LIVER, S-9, AROCLOR 1254, Method: STANDARD PLATE.

The source made the active and inactive calls. No rule for the calls is given here.

With `O=P(Oc1ccccc1)(Oc1ccccc1)Oc1ccccc1`, the mutagenic call is, setting by setting: under setting [1], “inactive; negative”; under setting [2], “inactive; negative”; under setting [3], “inactive; negative”; under setting [4], “inactive; negative”; under setting [5], “inactive; negative”; under setting [6], “inactive; negative”. In addition, the mutagenic call runs as follows: (Test System: AMES SALMONELLA TYPHIMURIUM, Strain/Indicator: TA1535, Metabolic Activation: HAMSTER, LIVER, S-9, AROCLOR 1254 (10 OR 50%), Method: PREINCUBATION) “inactive; negative”; under setting [7], “inactive; negative”; under setting [8], “inactive; negative”; (Test System: AMES SALMONELLA TYPHIMURIUM, Strain/Indicator: TA1537, Metabolic Activation: HAMSTER, LIVER, S-9, AROCLOR 1254 (10 OR 50%), Method: PREINCUBATION) “inactive; negative”; (Test System: AMES SALMONELLA TYPHIMURIUM, Strain/Indicator: TA1537, Metabolic Activation: NONE, Method: PREINCUBATION) “inactive; negative”; (Test System: AMES SALMONELLA TYPHIMURIUM, Strain/Indicator: TA1537, Metabolic Activation: RAT, LIVER, S-9, AROCLOR 1254 (10%), Method: PREINCUBATION) “inactive; negative”.
With `CC(=O)Nc1ccc2c(c1)[nH]c1ccccc12`, the mutagenic call under setting [9] is “active; positive”; the mutagenic call (Test System: AMES SALMONELLA TYPHIMURIUM, Strain/Indicator: TA98, Metabolic Activation: RAT, LIVER, S-9, PHENOBARBITAL, Method: STANDARD PLATE) is “active; positive”; the mutagenic call under setting [10] was “inactive; negative”; the mutagenic call (Test System: AMES SALMONELLA TYPHIMURIUM, Strain/Indicator: TA100, Metabolic Activation: RAT, LIVER, S-9, PHENOBARBITAL, Method: STANDARD PLATE) is “inactive; negative”; the mutagenic call (Test System: AMES SALMONELLA TYPHIMURIUM, Strain/Indicator: TA1537, Metabolic Activation: NONE, Method: STANDARD PLATE) was “inactive; negative”; the mutagenic call (Test System: AMES SALMONELLA TYPHIMURIUM, Strain/Indicator: TA1538, Metabolic Activation: NONE, Method: STANDARD PLATE) was “active; positive”. Moreover, the mutagenic call is, setting by setting: (Test System: AMES SALMONELLA TYPHIMURIUM, Strain/Indicator: TA1538, Metabolic Activation: RAT, LIVER, S-9, PHENOBARBITAL, Method: STANDARD PLATE) “active; positive”; (Test System: AMES SALMONELLA TYPHIMURIUM, Strain/Indicator: TA1977, Metabolic Activation: NONE, Method: STANDARD PLATE) “inactive; negative”; (Test System: AMES SALMONELLA TYPHIMURIUM, Strain/Indicator: TA1977, Metabolic Activation: RAT, LIVER, S-9, PHENOBARBITAL, Method: STANDARD PLATE) “inactive; negative”.
Consider `CC(=O)O[C@H]1CC[C@]2(C)[C@H]3CC[C@]4(C)[C@@H]([C@H](C)CCCC(C)C)CC[C@H]4[C@@H]3C[C@@H]3N(N4C(=O)c5ccccc5C4=O)[C@@]32C1` (stereo not given in full), for which the mutagenic call is “active; positive” under setting [11]; “active; positive” under setting [12]; “active; positive” under setting [9]; “active; positive” under setting [10]; “active; positive” under setting [13]; “inactive; negative” under setting [14]. Further, the mutagenic call by setting is: under setting [15], “active; positive”; (Test System: AMES SALMONELLA TYPHIMURIUM, Strain/Indicator: TA104, Metabolic Activation: NONE, Method: STANDARD PLATE) “active; positive”; (Test System: AMES SALMONELLA TYPHIMURIUM, Strain/Indicator: TA104, Metabolic Activation: RAT, LIVER, S-9, AROCLOR 1254, Method: STANDARD PLATE) “active; positive”.
On to `O=c1c2ccccc2[nH]c2ccccc12`, for which, where the note is “Test System: AMES SALMONELLA TYPHIMURIUM, Strain/Indicator: TA100, Metabolic Activation: GUINEA PIG, LIVER, S-9, 3-METHYLCHOLANTHRENE, Method: STANDARD PLATE”, the mutagenic call is “inactive; negative”.
As to `O=NN1CCSC1C(O)C(O)C(O)C(O)CO` (stereo not given), the mutagenic call was “inactive; negative” under setting [2]; “inactive; negative” under setting [9]; “inactive; negative” under setting [16]; “inactive; negative” under setting [17]; “active; positive” under setting [5]; “active; positive” under setting [10]. Moreover, the mutagenic call by setting is: (Test System: AMES SALMONELLA TYPHIMURIUM, Strain/Indicator: TA100, Metabolic Activation: RAT, LIVER, S-9, AROCLOR 1254, Method: PREINCUBATION) “active; positive”; under setting [13], “active; positive”.
`CCS(=O)CCSP(=O)(OC)OC` (stereo not given): the mutagenic call is, setting by setting: (Test System: AMES SALMONELLA TYPHIMURIUM, Strain/Indicator: TA97, Metabolic Activation: HAMSTER, LIVER, S-9, AROCLOR 1254 (10%), Method: PREINCUBATION) “inactive; negative”; (Test System: AMES SALMONELLA TYPHIMURIUM, Strain/Indicator: TA97, Metabolic Activation: NONE, Method: PREINCUBATION) “inactive; negative”; (Test System: AMES SALMONELLA TYPHIMURIUM, Strain/Indicator: TA97, Metabolic Activation: RAT, LIVER, S-9, AROCLOR 1254 (10%), Method: PREINCUBATION) “inactive; negative”; under setting [1], “inactive; negative”; under setting [2], “inactive; negative”; under setting [3], “inactive; negative”. The mutagenic call runs as follows: under setting [4], “active; positive”; under setting [5], “inactive; negative”; under setting [6], “active; positive”; (Test System: AMES SALMONELLA TYPHIMURIUM, Strain/Indicator: TA1535, Metabolic Activation: HAMSTER, LIVER, S-9, AROCLOR 1254 (10%), Method: PREINCUBATION) “active; positive”; under setting [7], “active; positive”; under setting [8], “active; positive”.
As to `Cc1ccc2cc3c(ccc4ccccc43)c3c2c1C(O)C3` (stereo not given), the mutagenic call (Test System: CHINESE HAMSTER V-79, Strain/Indicator: V-79/8-AZAGUANINE, Metabolic Activation: RAT, LIVER, S-9, AROCLOR 1254, Method: STANDARD PLATE) was “active; positive”.
On to `Cc1cccc(N=O)c1`, for which the mutagenic call under setting [16] is “inactive; negative”.
On to `c1ccc2c(c1)-c1cc3ccccc3cc1[C@@H]1N[C@H]21`, for which the mutagenic call was “active; positive” under setting [2], “active; positive” under setting [9] and “active; positive” under setting [10].
As to `CC1OC(OC2CC(O)(CO)Cc3c(O)c4c(c(O)c32)C(=O)c2ccccc2C4=O)C(I)C(O)C1O` (stereo not given), the mutagenic call is “inactive; negative” under setting [11]; “inactive; negative” under setting [12]; “inactive; negative” under setting [9]; “inactive; negative” under setting [17]; “inactive; negative” under setting [10]; “inactive; negative” under setting [13]. The mutagenic call by setting is: under setting [14], “active; positive”; under setting [15], “inactive; negative”.
For the compound `O=c1c(O)c2c(c3c1ccc1c3cccn1O)O2`, the mutagenic call under setting [10] was “inactive; negative”.
